From patent US20190083202A1, “APPARATUS AND METHODS USEFUL FOR REMODELING MAXILLOFACIAL BONE USING LIGHT THERAPY, AN ORTHODONTIC APPLIANCE, AND OPTIONALLY, VITAMIN D ADMINISTRATION” (priority 2017, published 2019)

Assay: Paper example: vitamin D3 supplementation with daily light and fixed orthodontic appliance
Assay type: in vivo, human
Conditions: passive phase; continued vitamin D3 2000 to 12,000 IU orally per day
Description: In one example, an adult patient's Vitamin D3 blood-serum level is measured during their routine orthodontic-examination and -records appointment. Laboratory results can indicate that the patient's vitamin D3 serum levels are at 20 ng/ml, which is considered to be deficient and abnormal. In this example, the patient's orthodontic diagnosis is Class I mild crowding with 4 mm of crowding on the upper arch and 4 mm on the lower arch. An orthodontic treatment plan can be formulated to comprise the installation of a fixed orthodontic appliance with some mild expansion of the upper and lower arches.
In this example, the patient self-administers oral oil-based vitamin D3 capsules at an amount of 6000 IU per day for 3 months to increase and normalize their vitamin D3 serum levels. Laboratory serum testing can optionally be performed again after 3 months of vitamin D3 supplementation. The patient can maintains or adjusts their oral dose of vitamin D3 based on their subsequent lab results. It should be understood that there are a number of alternative oral and/or systemic dosing protocols for vitamin D administration that could be followed to achieve similar results. The dosing protocol outlined above is merely one of many approaches.
In this example, orthodontic treatment can start either after the 3 month period or no more than about three months prior. […]

C=C1CC[C@H](O)C/C1=C/C=C1\CCC[C@]2(C)[C@@H]([C@H](C)CCCC(C)C)CC[C@@H]12 [vitamin D3]
alveolar bone density around the teeth: increased
